Earlier results, collected in patent US7393692B2, “SERS method for rapid pharmacokinetic analysis of drugs in saliva” (Real-Time Analyzers, Inc., priority 2004, dated 2008).

Assays:
[1] = molecular target: T1, dihydropyrimidine dehydrogenase (DPD) (Homo sapiens, UniProt Q12882); conditions: patient with the normal amount of DPD
T1 construct: endogenous in cells; host or cells: human individuals / hypothetical cancer patients (in vivo metabolism)
T1 sequence (Q12882 4-1025): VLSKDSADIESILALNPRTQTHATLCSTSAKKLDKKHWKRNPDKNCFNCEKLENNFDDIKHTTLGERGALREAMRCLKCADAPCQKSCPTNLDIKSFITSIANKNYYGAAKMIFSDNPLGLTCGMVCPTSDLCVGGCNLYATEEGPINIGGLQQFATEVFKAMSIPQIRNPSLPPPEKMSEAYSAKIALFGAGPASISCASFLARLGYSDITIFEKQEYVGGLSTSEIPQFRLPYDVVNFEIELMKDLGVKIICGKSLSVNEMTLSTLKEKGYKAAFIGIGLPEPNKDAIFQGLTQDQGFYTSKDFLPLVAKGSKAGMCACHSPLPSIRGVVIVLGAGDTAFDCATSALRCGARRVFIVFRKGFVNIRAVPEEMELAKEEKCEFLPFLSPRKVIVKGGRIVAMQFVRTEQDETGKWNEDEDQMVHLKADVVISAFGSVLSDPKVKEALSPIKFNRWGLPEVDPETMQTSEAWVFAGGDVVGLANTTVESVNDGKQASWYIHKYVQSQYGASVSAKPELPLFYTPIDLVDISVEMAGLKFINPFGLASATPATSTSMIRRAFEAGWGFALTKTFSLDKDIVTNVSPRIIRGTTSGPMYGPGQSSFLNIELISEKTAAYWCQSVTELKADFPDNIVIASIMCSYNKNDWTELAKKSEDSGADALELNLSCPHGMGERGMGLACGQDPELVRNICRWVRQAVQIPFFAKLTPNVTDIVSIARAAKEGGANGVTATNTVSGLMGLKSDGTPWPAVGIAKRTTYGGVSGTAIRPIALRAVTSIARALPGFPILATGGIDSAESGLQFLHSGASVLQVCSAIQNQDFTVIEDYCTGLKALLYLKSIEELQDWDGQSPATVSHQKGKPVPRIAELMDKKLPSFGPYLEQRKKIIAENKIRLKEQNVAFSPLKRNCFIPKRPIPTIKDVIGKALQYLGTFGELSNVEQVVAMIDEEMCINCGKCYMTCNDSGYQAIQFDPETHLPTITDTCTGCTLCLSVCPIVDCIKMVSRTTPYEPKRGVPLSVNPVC

[2] = patient dependent

5-FU metabolized to 5-FUH2 on average [1]: about 50%
5-FU concentration in saliva, maximum ([2]; closely matches plasma): 15 to 28 µg/mL
5-FU concentration in saliva, three hour minimum ([2]; three hour minimum): 0.1 µg/mL
Structure (SMILES): O=c1[nH]cc(F)c(=O)[nH]1 [5-FU, 5-fluorouracil]
